One data set addresses T1, p91 (Homo sapiens, UniProt P42224).
T1 construct: endogenous in cells; host or cells: Colo-205 (human adenocarcinoma) cell homogenates
T1 sequence (P42224 1-750): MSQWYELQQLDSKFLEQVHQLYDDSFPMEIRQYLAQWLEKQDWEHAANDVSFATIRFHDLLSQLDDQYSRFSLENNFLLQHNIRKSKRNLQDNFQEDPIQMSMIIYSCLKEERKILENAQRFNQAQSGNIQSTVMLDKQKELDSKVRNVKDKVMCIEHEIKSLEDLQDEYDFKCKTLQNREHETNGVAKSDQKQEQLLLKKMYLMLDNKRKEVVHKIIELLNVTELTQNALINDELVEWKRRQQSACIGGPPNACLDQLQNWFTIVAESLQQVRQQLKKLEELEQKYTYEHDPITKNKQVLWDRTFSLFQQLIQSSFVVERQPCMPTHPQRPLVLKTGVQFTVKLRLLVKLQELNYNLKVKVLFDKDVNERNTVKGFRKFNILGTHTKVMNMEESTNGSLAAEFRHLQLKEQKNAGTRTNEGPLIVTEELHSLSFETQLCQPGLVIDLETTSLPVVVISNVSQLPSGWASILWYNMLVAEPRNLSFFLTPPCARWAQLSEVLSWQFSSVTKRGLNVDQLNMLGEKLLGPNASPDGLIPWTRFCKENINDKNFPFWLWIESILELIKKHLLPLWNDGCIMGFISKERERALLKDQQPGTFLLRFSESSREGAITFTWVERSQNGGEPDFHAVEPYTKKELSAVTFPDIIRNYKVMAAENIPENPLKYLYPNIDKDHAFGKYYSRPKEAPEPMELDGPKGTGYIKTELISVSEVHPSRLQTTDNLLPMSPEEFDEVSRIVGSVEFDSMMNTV
The experiment in a line: Electrophoretic mobility shift assay (EMSA) of IFNγ-induced p91 activation in Colo-205 homogenates. To be noted: phosphopeptide 3 μM. It is filed as biochemical. An excerpt:
For this example, the finding that the latent IFNγ inducible transcription factor, p91, can be activated by IFNγ in a cell free system (Igarashi et al., Mol Cell Biol 13:1634-1640, 1993 which is incorporated by reference) was utilized to determine the biologic significance of the IFNγ induced tyrosine phosphorylation of the Y440 residue in the IFNγ receptor molecule. Colo-205 homogenates were stimulated with 1900 IRU of human IFNγ and p91 activation monitored using an electrophoretic mobility gel shift assay (EMSA) that employed a ^32 P-labeled 18 bp probe derived from the FcγR I gene promoter (Pearse et al., Proc Natl Acad Sci 90:4314-4318, 1993 which is incorporated by reference). The EMSAs were carried out essentially as described (Igarashi et al., supra). […] The reactions were then electrophoresed through a 6% polyacrylamide gel in 0.25×TBE for 3 hours at 150 V. Gels were dried and subsequently analyzed by autoradiography. […] Specificity of interactions were determined by the addition of 350 ng of the unlabeled GRR probe or 560 ng of the unlabeled 41 base pair double stranded oligonucleotide containing the ISRE of ISG15 (5'-GATCCATGCCTCGGGA-[…]-3' SEQ ID NO: 14) (David and Larner, Science 257:813-815, 1992 which is incorporated by reference). […]
A general note: In EMSA bound probe runs differently from free probe, usually more slowly.

The next data set concerns Colo-205 cells. The experiment in a line: IFNγ dependent MHC class II induction on Colo-205 cells. In kind it is cell-based, human. To be noted: pretreatment of Colo-205 cells with 1 mM. As for the experimental part: To further characterize the tyrosine phosphorylation of the […] receptor and to partially validate its biologic significance, concomitant dose-response phosphorylation and MHC class II induction analyses were performed. Colo-205 cells (1×10^8 cells/ml) were stimulated for 5 minutes with the indicated concentrations of rHuIFNγ as shown in FIG. 2. Cells were lysed and the IFNγ receptor immunoprecipitated, subjected to SDS-PAGE and electrophoretically transferred to nitrocellulose membranes as described above. Membranes were blotted with the mAb 4G10 (anti-phosphotyrosine) as described. Colo-205 cells (1×10^8 cells/ml) were also stimulated for 5 minutes with the indicated concentrations of rHuIFNγ, washed, and incubated an additional 48 hours in the absence of rHuIFNγ. MHC class II expression was quantitated by flow cytometric analysis.

For a further data set, the system named is IFNγ receptor α chain. The experiment in a line: IFNγ dependent tyrosine phosphorylation of the IFNγ receptor α chain in Colo-205 cells (4G10 western blot). To be noted: pretreatment of Colo-205 cells with 1 mM. In kind it is cell-based, human. An excerpt:
For these experiments, Colo-205, a human adenocarcinoma cell line obtained from the ATCC, was used because it was known to express a high number of IFNγ receptors (10,000 receptors/cell) and has been well characterized with regard to both biologic responsiveness to IFNγ and IFNγ receptor […] phosphorylation (Hershey and Schreiber, 1989; Hershey et al., 1990 both of which are incorporated by reference). Colo-205 cells (5-10×10^7) were resuspended in one ml of PBS-10% FCS and were then incubated at 37° C., either in the presence or absence of rHuIFNγ (10,000 IRU). Purified recombinant human IFNγ was provided by Dr. Susan Kramer of Genentech, Inc. (South San Francisco, Calif.). […] Purified rHuIFNγ was radioiodinated, using Bolton Hunter reagent (ICN Chemicals, Radioisotope Division, Irvine, Calif.) to specific activities of 6.5-17.8 μCi/μg as described in Celada et al. (J Clin Invest 76:2196-2205, 1985 which is incorporated by reference). The reaction was stopped by adding 4 mls of ice-cold PBS. Cells were pelleted, washed once in ice-cold PBS, and then lysed in one ml of lysis buffer (25 mM Tris-HCl (pH 8.0), 1% NP-40, 150 mM NaCl, 1 mM sodium orthovanadate, 10 mM NaF, 1 mM PMSF, 5mM iodoacetamide, […] leupeptin and aprotinin). Solubilized cells were centrifuged at 15,000×g to remove cell nuclei and the supernatants were then incubated with 10 μg of GIR-94 for 30 minutes at 4° C. Protein G sepharose was added to the reaction mixture and the incubation continued for an additional 30 minutes. […]
To determine the amount of receptor precipitated at each time point, aliquots from each immunoprecipitate were subjected to western blot analysis using a monoclonal antibody (GIR-94, a murine antibody IgG2b) that is specific for the human IFNγ receptor extracellular domain. In the absence of added IFNγ, no tyrosine phosphorylated receptor was detected (FIG. 1, lane 1). […]
(In western blotting, separated proteins are transferred to a membrane and probed.)

Data set [1] in a line: Specific antiviral activity of rHuIFNγ. To be noted: purified recombinant human IFNγ.

Where a SMILES comes first, the peptide text is derived from it. [ ]: non-standard residue; d: D form. pY = N[C@@H](Cc1ccc(OP(=O)(O)O)cc1)C(=O)O

Consider `C[C@@H](O)[C@H](N)C(=O)N[C@@H](CO)C(=O)N[C@@H](Cc1ccccc1)C(=O)NCC(=O)N[C@@H](Cc1ccc(OP(=O)(O)O)cc1)C(=O)N[C@@H](CC(=O)O)C(=O)N[C@@H](CCCCN)C(=O)N1CCC[C@H]1C(=O)N[C@@H](Cc1c[nH]cn1)C(=O)O` [SEQ ID NO:3, Thr-Ser-Phe-Gly-Xaa-Asp-Lys-Pro-His] (H-TSFG[pY]DKPH-OH), for which the “inhibition of formation of activated p91-labeled probe complex” value at p91 is 61%. On to `CO[C@H]1[C@@H](OC)C[C@H](C)[C@@H](OC)C2=CC(=O)C=C(NC(=O)/C(C)=C/C=C\[C@H](OC)[C@@H](OC(N)=O)/C(C)=C/[C@@H]1C)C2=O` [herbimycin A, reference compound], for which, in the data set with Colo-205 cells, the “IFNγ dependent MHC class II induction” value was “blocked”. In the data set on IFNγ receptor α chain, the “IFNγ dependent tyrosine phosphorylation of the IFNγ receptor α chain” value is recorded as “inhibited”.

B1: rHuIFNγ: Purified recombinant human IFNγ provided by Genentech, Inc. (protein, UniProt P01579 24-161, looked up)
Interferon gamma: QDPYVKEAENLKKYFNAGHSDVADNGTLFLGILKNWKEESDRKIMQSQIVSFYFKLFKNFKDDQSIQKSVETIKEDMNVKFFNSNKKKRDDFEKLTNYSVTDLNVQRKAIHELIQVMAELSPAAKTGKRKRSQMLFRG
For the molecule B1, the specific antiviral activities in data set [1] was 3.8×10^7 IRU/mg.

The values are drawn from US5731155A, “Compositions for inhibition of intracellular transcription factors and methods therefor” (Washington University, priority 1996, dated 1998).
